Laboratory results published in article PMC9304322, “Targeting retinoic acid receptor alpha-corepressor interaction activates chaperone-mediated autophagy and protects against retinal degeneration” (Nature Communications, 2022).
Several values for one entry are separate records, joined by “and”; a condition that tells them apart may be missing. Identical values can stand only once.

Columns and labels:
[1] = system: NIH3T3 cells stably expressing the mCherry-GFP-LC3 reporter; assay: Macroautophagy activity, mCherry-GFP-LC3 reporter; assay type: cell-based, mouse; conditions: for effect on macroautophagy: NIH3T3, MRT-sensitive proteolysis, LC3-II flux, mCherry-GFP-LC3 reporter
Protocol: Cells were transduced with a lentiviral vector expressing mCherry-GFP-LC3[35], fixed and flux determined as the conversion of dual fluorescence puncta (autophagosomes) into only red fluorescent puncta (autolysosomes). Flux was also measured by immunoblot for LC3 in cells incubated for 6 h with 20 mM NH4Cl/100 μM leupeptin, by discounting the intensity of LC3 in non-treated cells from that in cells treated with the inhibitors.

[2] = system: CMA network components in NIH3T3 cells; assay: qPCR of CMA network components and CMA activation score;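 as to AKT1 mRNA level: fold of untreated cells after 20 µM for 24 h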;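 as to AKT2 mRNA level: fold of untreated cells after 20 µM for 24 h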;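 as to CTSA mRNA level: fold of untreated cells after 20 µM for 24 h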;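 as to HSC70 mRNA level: fold of untreated cells after 20 µM for 24 h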;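 as to HSP40 mRNA level: fold of untreated cells after 20 µM for 24 h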;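 as to HSP90AA1 mRNA level: fold of untreated cells after 20 µM for 24 h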;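 as to HSP90AB1 mRNA level: fold of untreated cells after 20 µM for 24 h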;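 as to LAMP2A mRNA level: fold of untreated cells after 20 µM for 24 h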;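 as to NCOR1 mRNA level: fold of untreated cells after 20 µM for 24 h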;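 as to NFATC1 mRNA level: fold of untreated cells after 20 µM for 24 h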;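 as to NFE2L2 mRNA level: fold of untreated cells after 20 µM for 24 h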;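 as to PHLPP1 mRNA level: fold of untreated cells after 20 µM for 24 h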;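 as to RAB11A mRNA level: fold of untreated cells after 20 µM for 24 h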;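 as to RAC1 mRNA level: fold of untreated cells after 20 µM for 24 h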;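 as to RARa mRNA level: fold of untreated cells after 20 µM for 24 h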; assay type: cell-based, mouse; parameters: LAMP2A mRNA level / HSP90AB1 mRNA level / HSP40 mRNA level / RAC1 mRNA level / AKT1 mRNA level / AKT2 mRNA level / CTSA mRNA level / NFATC1 mRNA level / HSC70 mRNA level / NCOR1 mRNA level / NFE2L2 mRNA level / RAB11A mRNA level / RARa mRNA level / HSP90AA1 mRNA level / EEF1A1 mRNA level / RICTOR mRNA level: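 fold of untreated cells after 20 µM for 24 h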; key to CMA activation score: weighted (LAMP-2A ×2), directed (±1) average of CMA network expression; conditions: for AKT1 mRNA level / AKT2 mRNA level / CTSA mRNA level / EEF1A1 mRNA level / HSC70 mRNA level / HSP40 mRNA level / HSP90AA1 mRNA level / HSP90AB1 mRNA level / LAMP2A mRNA level / NCOR1 mRNA level / NFATC1 mRNA level / NFE2L2 mRNA level / PHLPP1 mRNA level / RAB11A mRNA level / RAC1 mRNA level / RARa mRNA level / RICTOR mRNA level: Fig. 2d (left), one sample t test; for AKT1 mRNA level / AKT2 mRNA level / CTSA mRNA level / EEF1A1 mRNA level / HSC70 mRNA level / HSP40 mRNA level / HSP90AA1 mRNA level / HSP90AB1 mRNA level / LAMP2A mRNA level / NCOR1 mRNA level / NFATC1 mRNA level / NFE2L2 mRNA level / PHLPP1 mRNA level / RAB11A mRNA level / RAC1 mRNA level / RARa mRNA level / RICTOR mRNA level / CMA activation score: individual replicate values; for CMA activation score: Fig. 2d (right); for predicted CMA score compared to AR7: NIH3T3, 20μM for 24 h
Protocol: RNA was extracted from individual retinas or tissue sections (brain, liver). Total RNA from retinas was extracted using TRIzol Reagent (Invitrogen, # 15596-018), and reverse transcription was performed using the High-Capacity cDNA Reverse Transcription Kit (Applied Biosystems, # 4374966) according to the manufacturer’s instructions. Quantitative real-time PCR was performed in a Light Cycler 480 Instrument (Roche) with Taqman LightCycler 480 probes Master Mix (Roche, #4887301001) using Taqman assays (Life Technologies). For cells in culture, RNA was extracted using RNeasy Plus Mini Kit (Qiagen, #74034), and reverse transcription was performed using Superscript III (Invitrogen, #18080051). Quantitative RT-PCR analysis were performed using Power SYBR Green PCR Master Mix (Applied Biosystems, #4368708) on a StepOne Plus Real-Time PCR System (Applied Biosystems). Mm01184405_m1 probe (Thermofisher) was used for rhodopsin and the sequence of all the other probes used for qPCR is included in Supplementary Table 2.
CMA index[14] was calculated using data set from[23]–[25]. Briefly, each element of the CMA network[13] has attributed a weight. As LAMP-2A is the rate-limiting component of CMA, it was given a weight of 2. Every other element received a weight of 1. Then, every element was attributed direction score that is +1 or −1 based on the known effect of a given element on CMA activity. The score was then calculated as the weighted/ directed average of expression counts of every element of the CMA network.

[3] = c0 = 2 (axis unlabelled; ANOVA calls row factor Time)

## Clc1ccc2c(c1)OCC(c1ccc(-c3ccccc3)cc1)=N2 [CA39]
[1]
  effect on macroautophagy: did not have the inhibitory effect on macroautophagy
[1]; [3]
  APG (Fig. S3e): 3.494
  AUT (Fig. S3e): 0.8582
  AV (Fig. S3e): 4.352
[1]; c0 = 5 (axis unlabelled)
  APG (Fig. S3e): 2.288
  AUT (Fig. S3e): 1.522
  AV (Fig. S3e): 3.81
[1]; c0 = 10 (axis unlabelled)
  APG (Fig. S3e): 2.801
  AUT (Fig. S3e): 1.622
  AV (Fig. S3e): 4.423
[1]; c0 = 15 (axis unlabelled)
  APG (Fig. S3e): 3.21
  AUT (Fig. S3e): 1.42
  AV (Fig. S3e): 4.63
[1]; c0 = 20 (axis unlabelled)
  APG (Fig. S3e): 2.614
  AUT (Fig. S3e): 2.2085
  AV (Fig. S3e): 4.823
[1]; c0 = 25 (axis unlabelled)
  APG (Fig. S3e): 2.9327
  AUT (Fig. S3e): 2.406
  AV (Fig. S3e): 5.339
[1]; c0 = 30 (axis unlabelled)
  APG (Fig. S3e): 1.904
  AUT (Fig. S3e): 2.071
  AV (Fig. S3e): 3.975
[1]; c0 = 40 (axis unlabelled)
  APG (Fig. S3e): 3.037
  AUT (Fig. S3e): 2.167
  AV (Fig. S3e): 5.204
[1]; c0 = 50 (axis unlabelled)
  APG (Fig. S3e): 3.658
  AUT (Fig. S3e): 0.5267
  AV (Fig. S3e): 4.185
[2]
  AKT1 mRNA level: 1.27 and 1.30 and 1.45 and 1.16 and 1.03 and 1.84 and 1.28
  AKT2 mRNA level: 1.32 and 1.30 and 1.24 and 1.01 and 1.08 and 1.88 and 1.04
  CTSA mRNA level: 1.42 and 1.82 and 1.76 and 1.16 and 1.21 and 1.47 and 1.18
  EEF1A1 mRNA level: 1.63 and 1.19 and 0.99 and 1.36 and 0.64 and 1.12
  HSC70 mRNA level: 1.22 and 1.61 and 1.44 and 1.21 and 1.29 and 2.10 and 1.42
  HSP40 mRNA level: 1.09 and 1.23 and 1.16 and 0.96 and 0.74 and 1.03
  HSP90AA1 mRNA level: 1.17 and 1.01 and 0.95 and 0.86 and 0.74 and 0.72
  HSP90AB1 mRNA level: 1.00 and 0.99 and 0.98 and 1.04 and 0.83 and 0.75
  LAMP2A mRNA level: 1.75 and 1.44 and 1.56 and 1.42 and 1.32 and 1.48
  NCOR1 mRNA level: 1.09 and 1.39 and 1.22 and 0.82 and 0.71 and 0.95 and 0.89
  NFATC1 mRNA level: 1.14 and 1.53 and 1.30 and 0.80 and 1.03 and 1.25 and 1.28
  NFE2L2 mRNA level: 0.96 and 1.16 and 1.02 and 0.72 and 0.80 and 1.15 and 1.10
  PHLPP1 mRNA level: 1.27 and 1.65 and 1.69 and 3.21 and 1.20 and 1.48 and 1.51
  RAB11A mRNA level: 1.05 and 1.19 and 0.95 and 0.84 and 1.00 and 1.21 and 1.07
  RAC1 mRNA level: 1.38 and 1.77 and 1.43 and 1.78 and 1.31 and 1.54 and 1.42
  RARa mRNA level: 0.55 and 1.08 and 1.05 and 0.89 and 0.84 and 0.93 and 0.88
  RICTOR mRNA level: 1.22 and 1.28 and 0.83 and 0.86 and 1.60 and 1.10
  CMA activation score: 0.6107 and 0.1532 and -0.08737 and 0.08765
  predicted CMA score compared to AR7: higher

## CC(=O)Nc1ccc(C2=Nc3ccc(Cl)cc3OC2)cc1 [CA77]
[1]
  effect on macroautophagy: did not have the inhibitory effect on macroautophagy
[1]; [3]
  APG (Fig. S3e): 3.899
  AUT (Fig. S3e): 0.5811
  AV (Fig. S3e): 4.481
[1]; c0 = 5 (axis unlabelled)
  APG (Fig. S3e): 3.275
  AUT (Fig. S3e): 0.7542
  AV (Fig. S3e): 4.029
[1]; c0 = 10 (axis unlabelled)
  APG (Fig. S3e): 2.43
  AUT (Fig. S3e): 3.694
  AV (Fig. S3e): 6.1244
[1]; c0 = 15 (axis unlabelled)
  APG (Fig. S3e): 2.828
  AUT (Fig. S3e): 3.073
  AV (Fig. S3e): 5.901
[1]; c0 = 20 (axis unlabelled)
  APG (Fig. S3e): 2.044
  AUT (Fig. S3e): 3.746
  AV (Fig. S3e): 5.79
[1]; c0 = 25 (axis unlabelled)
  APG (Fig. S3e): 2.063
  AUT (Fig. S3e): 4.0642
  AV (Fig. S3e): 6.127
[1]; c0 = 30 (axis unlabelled)
  APG (Fig. S3e): 2.895
  AUT (Fig. S3e): 3.5777
  AV (Fig. S3e): 6.473
[1]; c0 = 40 (axis unlabelled)
  APG (Fig. S3e): 2.857
  AUT (Fig. S3e): 3.822
  AV (Fig. S3e): 6.679
[1]; c0 = 50 (axis unlabelled)
  APG (Fig. S3e): 4.838
  AUT (Fig. S3e): 2.082
  AV (Fig. S3e): 6.9193
[2]
  AKT1 mRNA level: 1.86 and 1.18 and 1.20 and 0.75 and 0.97 and 1.87 and 1.39
  AKT2 mRNA level: 1.39 and 1.17 and 1.12 and 0.66 and 1.01 and 1.53 and 1.20
  CTSA mRNA level: 1.67 and 1.46 and 1.22 and 0.88 and 1.08 and 1.45
  EEF1A1 mRNA level: 1.15 and 1.98 and 1.39 and 1.19 and 1.55
  HSC70 mRNA level: 1.44 and 1.49 and 1.28 and 0.82 and 1.24 and 1.57
  HSP40 mRNA level: 0.73 and 0.99 and 0.82 and 0.53 and 0.77 and 1.06
  HSP90AA1 mRNA level: 1.50 and 0.94 and 0.92 and 0.76 and 0.78 and 0.87 and 0.90
  HSP90AB1 mRNA level: 1.21 and 0.89 and 0.79 and 0.62 and 0.81 and 0.82 and 0.83
  LAMP2A mRNA level: 1.32 and 1.55 and 1.43 and 1.87 and 2.34 and 2.75 and 2.33
  NCOR1 mRNA level: 2.35 and 1.24 and 0.55 and 0.97 and 2.06 and 1.85
  NFATC1 mRNA level: 2.10 and 1.29 and 1.23 and 0.50 and 0.73 and 1.05 and 1.18
  NFE2L2 mRNA level: 1.29 and 1.15 and 1.04 and 0.89 and 0.77 and 1.26
  PHLPP1 mRNA level: 2.13 and 1.55 and 1.38 and 2.29 and 1.20 and 1.48 and 1.51
  RAB11A mRNA level: 1.15 and 0.97 and 0.81 and 0.59 and 0.79 and 0.89 and 1.07
  RAC1 mRNA level: 0.89 and 1.51 and 1.36 and 1.27 and 1.10 and 1.63 and 1.34
  RARa mRNA level: 1.23 and 0.87 and 0.82 and 0.27 and 1.06 and 2.06 and 1.10
  RICTOR mRNA level: 0.96 and 1.28 and 0.65 and 0.74 and 1.53 and 1.63
  CMA activation score: 0.1487 and -0.2323 and 0.1868 and 0.1591
  predicted CMA score compared to AR7: higher
